# “Also recorded” adds a separate entry of the source.
# Key:
# Type in all cases: in vivo, mouse
# Tg.rasH2 mice = experiment: Duplex Sequencing mutant frequency and spectrum in Tg.rasH2 mice dosed with urethane; settings: for Mutation Frequency: urethane day 1,3,5, sacrifice day 29, Duplex Sequencing
# From the text: (§1) In this example, the impact of a urethane is examined in different mouse tissue types (lung, spleen, blood) in an FDA-approved cancer-predisposed mouse model: Tg.rasH2 (Saitoh et al. Oncogene 1990. PMID 2202951). This mouse contains ˜3 tandem copies of human Hras with an activating enhancer mutation to boost expression on one hemizygous allele. These mice are predisposed to splenic angiosarcomas and lung adenocarcinomas, and are routinely used for 6 month carcinogenicity studies to substitute for 2 year native animal studies. Tumors found in the mice have usually acquired activating mutations in one copy of the human Hras protooncogene. In this addition to the 4 native mouse genes (Rho, Hp, Ctnnb1, Polr1c), the native mouse Hras and human Hras transgene are also analyzed in this example.
# (§2) In this example, Tg.rasH2 mice (n=5/group) were dosed with vehicle or a carcinogenic dose of urethane (day 1,3,5) and sacrificed on day 29 for mutation detection by Duplex Sequencing in target tissues (lung, spleen) and whole blood. The endogenous genes (Rho, Hp, Ctnnb1, Polr1c) and the native mouse and human Hras (trans)genes were also sequenced.
# FIG. 8 is a bar graph showing mutant frequency (MF) of lung, spleen and blood samples for control and experimental animals subjected to urethane. In this analysis, every unique variant detected was counted as one mutation, which were summed per sample. This was divided by the total number of Duplex Bases sequenced and across the entire capture region. The number of events is noted above each sample. In total, across all 30 samples, 3,966,947,832 Duplex Sequenced base pairs were generated.
# Referring to FIG. 9 and Table 1 together, differences between vehicle control (VC) and treatment groups were highly significant. A Welch's t-test (for unequal variances) was used to determine the significance of the mutagen treated tissue's mutant frequency over that of the control for that tissue. The slightly wider confidence intervals with blood reflects a lower average depth of sequencing in the blood VC samples in this particular example. It is anticipated that this can be corrected using the methods described herein.
# [1] = test system: human HRAS transgene codon 61; experiment: Duplex Sequencing detection of clonal oncogenic mutations in human HRAS transgene of Tg.rasH2 mice; settings: day 29
# From the text: as §1, §2
# FIG. 15A is a graph illustrating SNVs plotted over the genomic intervals for the exons captured from the Ras family of genes, including the human transgenic loci, in the Tg-rasH2 mouse model. Singlets are mutations found in a single molecule. Multiplets are an identical mutation identified within multiple molecules within the same sampler and may represent a clonal expansion event. The height of each point corresponds to the variant allele frequency (VAF) of each SNV, with the with the size of the point corresponds to the for multiplet observations only. The location and relative frequency of Ras family human cancer mutational hotspots in COSMIC are indicated below each gene. FIG. 15B is a graph illustrating single nucleotide variants (SNVs) aligning to exon 3 of the human HRAS transgene. Highlighted is the center residue in codon number 61 in exon 3 of human HRAS, the most common HRAS cancer-driving hotspot.
# [2] = test system: BigBlue® transgenic C57BL/6 male mice; experiment: Duplex Sequencing mutant frequency and spectrum in BigBlue transgenic mice (cII transgene and endogenous genes)
# Description: Tissues were collected and frozen on study day 31. Liver and bone marrow were analyzed for mutants. DNA was isolated and mutants analyzed for cII mutant plaques using RecoverEase and Transpack methods described by Agilent Technologies. Duplex Sequencing was used to sequence cII and other endogenous genes for mutations in liver and bone marrow.
# Genes evaluated and criteria used to select genes are as follows: (1) Polr1c (RNA polymerase), which is ubiquitously transcribed in all tissue types; (2) Rho (Rhodopsin), which is not expressed in any tissue besides retina; (3) Hp (Haptoglobin), which is highly expressed in liver, but almost nowhere else; (4) Ctnnb1 (Beta-catenin), which is most commonly mutated gene in human hepatocellular carcinoma; and (5) CII: 360 bp transgenic reporter gene present in ˜80 copies in BigBlue® mice.
# FIGS. 3A-3D are box plot graphs showing mutant frequencies calculated for Duplex Sequencing (FIGS. 3A and 3B) and the BigBlue® cII plaque assay (FIGS. 3C and 3D) in liver and bone marrow following mutagen treatment as described above. MF for Duplex Sequencing was based on total mutants per duplex base-pair sequenced (n=5 mice/group). MF for BigBlue® was calculated as number of mutant plaques relative to number of […] (n=6 mice/group).
Fold Increase of mutation frequency over vehicle control (Tg.rasH2 mice; Blood) [x],"Mutation Frequency (Tg.rasH2 mice; Blood, Tg.rasH2 mice)",Fold Increase of mutation frequency over vehicle control (Tg.rasH2 mice; Lung) [x],"Mutation Frequency (Tg.rasH2 mice; Lung, Tg.rasH2 mice)",Fold Increase of mutation frequency over vehicle control (Tg.rasH2 mice; Spleen) [x],"Mutation Frequency (Tg.rasH2 mice; Spleen, Tg.rasH2 mice)",Variant allele frequencies of HRAS codon 61 mutation ([1]; four out of five treated lung samples),Fraction of treated samples with T>A transversions at human oncogenic Hras codon 61 hotspot ([1]; lung samples),Fraction of treated samples with T>A transversions at human oncogenic Hras codon 61 hotspot ([1]; splenic samples),Structure (SMILES),"Trinucleotide (triplet) mutation spectrum, predominant mutation (Tg.rasH2 mice; lung, spleen, blood, Tg.rasH2 mice)","MF in 4 endogenous genes (Polr1c, rhodopsin, haptoglobin, beta-catenin) ([2]; BigBlue mice, liver and bone marrow)","Mutation spectrum, distinguishing mutation types ([2]; aggregated across all genes, all tissues, unsupervised cluster analysis)","Mutation load relative to controls ([2]; bone marrow and liver, cII transgene, BigBlue mice, study day 31)","Trinucleotide context hotspots (most vulnerable contexts) ([2]; trinucleotide spectra, BigBlue mice)"
2.2,2.39e−07,7.5,5.04e−07,3.3,2.73e−07,0.1%-1.8%,⅘,⅕,"CCOC(N)=O [Urethane, urethane]",T:A→A:T within the motif “NTG” is shown as the most common mutation; also recorded: strong propensity for T→A and T→C mutations within the context of “NTG”,,,,
,,,,,,,,,"CCN(N=O)C(N)=O [ENU, N-ethyl-N-nitrosourea]",,increased,"preponderance of T→C, T→A, and C→T mutations",significantly increased relative to controls,GTS and GTG and GTC

# Reference: US20210355532A1, “METHODS AND REAGENTS FOR DETECTING AND ASSESSING GENOTOXICITY” (TwinStrand Biosciences, Inc., priority 2018, published 2021)
